Biological target: T1, human acid ceramidase (AC) (Homo sapiens, UniProt Q13510)
T1 construct: made in house; host or cells: HEK-293 cells stably overexpressing human AC; enzyme-enriched lysate
T1 sequence (Q13510 143-395 limits assumed): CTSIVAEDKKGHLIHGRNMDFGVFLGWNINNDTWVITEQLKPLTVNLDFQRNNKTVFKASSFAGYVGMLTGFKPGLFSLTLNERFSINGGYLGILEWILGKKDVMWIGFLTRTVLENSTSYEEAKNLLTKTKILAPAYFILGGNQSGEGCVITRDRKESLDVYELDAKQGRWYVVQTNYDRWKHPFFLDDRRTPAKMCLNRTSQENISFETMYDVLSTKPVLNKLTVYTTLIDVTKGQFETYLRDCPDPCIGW
T1 sequence (Q13510 22-142 limits assumed): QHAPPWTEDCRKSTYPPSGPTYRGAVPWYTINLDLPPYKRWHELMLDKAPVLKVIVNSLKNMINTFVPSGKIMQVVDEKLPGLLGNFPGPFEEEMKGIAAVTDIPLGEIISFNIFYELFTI
Assay: Fluorogenic human-AC assay
Assay type: biochemical
Method: Human recombinant proteins were obtained from HEK-293 stable overexpressing human NAAA, AC, and FAAH-1 cell lines, respectively. Cells were grown in Dulbecco’s modified Eagle medium (DMEM) containing 10% FBS, 1% glutamine, 1 mM sodium pyruvate, and 500 μg/mL geneticin (G418). To obtain a high-density cell proliferation, h-NAAA-HEK-293 cells were grown in BelloCell-500 bottle, a compact bioreactor. On the contrary, h-AC and h-FAAH-1-HEK-293 cells were grown in 150 mm dishes and scraped off with cold PBS 1× pH 7.4 at 80% confluence. Cell pellets were collected and stored at −80 °C until protein preparation.
HEK-293 cells stably transfected with the human NAAA or human AC coding sequences were used as the enzyme source. […] The suspension was finally centrifuged at 105,000g for 1 h at 4 °C, supernatants were collected, protein concentration was measured, and samples were aliquoted and stored at −80 °C until use.
The assay was performed in Optiplate 96-wells black plates (PerkinElmer, Massachusetts, USA) in a total reaction volume of 250 μL. h-AC protein (2 μg) was preincubated for 10 min with various concentrations of test compounds or vehicle control (DMSO 5%) in 25 mM sodium acetate buffer (pH 4.5). […] Fluorescence was measured with the EnVision 2014 Multilabel Reader (PerkinElmer, Massachusetts, USA) at an excitation/emission wavelength of 355/460 nm. […]

## CCOCc1cnc(O[C@H]2C[C@H]3CC[C@@H](C2)N3S(=O)(=O)c2c(C)n[nH]c2C)cn1 [Compound 50, (1R,3r,5S)-8-((3,5-Dimethyl-1H-pyrazol-4-yl)sulfonyl)-3-((5-(ethoxymethyl)pyrazin-2-yl)oxy)-8-azabicyclo[3.2.1]octane]
  inhibition at 30 µM: 34%

— paper PMC8474119, “Discovery and SAR Evolution of Pyrazole Azabicyclo[3.2.1]octane Sulfonamides as a Novel Class of Non-Covalent N-Acylethanolamine-Hydrolyzing Acid Amidase (NAAA) Inhibitors for Oral Administration” (Journal of Medicinal Chemistry, 2021)
